The values below come from patent publication US9260429B2, “Pyrido[3,4-B]indoles and methods of use” (Medivation Technologies, Inc., priority 2008, dated 2016).

Where two headings read alike, the source gives them in different places.

Assay [1] has as its target T1, human recombinant histamine H1 receptor (Homo sapiens, UniProt P35367).
T1 construct: expressed in transfected cells; host or cells: CHO cells
Nature of the assay: Histamine H1 radioligand binding ([3H]Pyrilamine). The essentials:
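Binding to the human recombinant histamine H1 receptor, expressed in CHO cells, was measured in a modified Tris-HCl buffer (50 mM Tris-HCl, pH 7.4, 2 mM MgCl2, 100 mM NaCl, 250 mM Sucrose). Compounds were incubated with 1.2 nM [3H]Pyrilamine for 180 minutes at 25° C, with 1 μM pyrilamine defining non-specific binding. After filtration and washing, filter counts gave percent inhibition of specific binding.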

Assay [2] deals with T2, human recombinant adrenergic α1D receptor (Homo sapiens, UniProt P25100).
T2 construct: expressed in transfected cells; host or cells: HEK-293 cells
T2 sequence (P25100 1-572): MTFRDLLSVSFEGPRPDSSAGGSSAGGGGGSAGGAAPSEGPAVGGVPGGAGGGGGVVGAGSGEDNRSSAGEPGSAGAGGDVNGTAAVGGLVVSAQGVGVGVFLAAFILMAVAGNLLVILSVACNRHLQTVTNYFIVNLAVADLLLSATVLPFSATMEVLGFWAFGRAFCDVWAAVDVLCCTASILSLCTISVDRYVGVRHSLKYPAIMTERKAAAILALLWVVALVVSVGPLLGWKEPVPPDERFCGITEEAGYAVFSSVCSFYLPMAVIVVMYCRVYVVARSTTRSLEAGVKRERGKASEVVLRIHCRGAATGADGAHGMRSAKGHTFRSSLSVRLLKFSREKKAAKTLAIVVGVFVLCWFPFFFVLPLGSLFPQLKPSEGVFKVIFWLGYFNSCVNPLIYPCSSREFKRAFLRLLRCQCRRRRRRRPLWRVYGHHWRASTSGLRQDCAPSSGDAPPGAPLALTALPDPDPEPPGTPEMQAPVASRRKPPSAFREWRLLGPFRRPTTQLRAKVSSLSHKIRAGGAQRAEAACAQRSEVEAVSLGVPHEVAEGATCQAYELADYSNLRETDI
Nature of the assay: Adrenergic α1D radioligand binding ([3H]Prozosin). On the procedure:
To evaluate in radioligand binding assays the activity of compounds of the invention, human recombinant adrenergic a1D receptor expressed in human embryonic kidney (HEK-293) cells (Kenny, B. A. et al. Br. J. Pharmacol. 115(6):981, 1995) in a 50 mM Tris-HCl buffer, pH 7.4, was used. Compounds of invention were incubated with 0.6 nM [^3H]Prozosin for 60 minutes at 25° C. Non-specific binding was estimated in the presence of 10 μM phentolamine. Receptor proteins were filtered and washed, the filters were then counted to determine [^3H]Prozosin specifically bound. Compounds were screened at 1 μM or lower, using 1% DMSO as vehicle. Biochemical assay results are presented as the percent inhibition of specific binding in Table 4. Adrenergic a2A

Assay [3] has as its target T3, human recombinant adrenergic α2A receptor (Homo sapiens, UniProt P08913).
T3 construct: expressed in transfected cells; host or cells: insect Sf9 cells
T3 sequence (P08913 1-465): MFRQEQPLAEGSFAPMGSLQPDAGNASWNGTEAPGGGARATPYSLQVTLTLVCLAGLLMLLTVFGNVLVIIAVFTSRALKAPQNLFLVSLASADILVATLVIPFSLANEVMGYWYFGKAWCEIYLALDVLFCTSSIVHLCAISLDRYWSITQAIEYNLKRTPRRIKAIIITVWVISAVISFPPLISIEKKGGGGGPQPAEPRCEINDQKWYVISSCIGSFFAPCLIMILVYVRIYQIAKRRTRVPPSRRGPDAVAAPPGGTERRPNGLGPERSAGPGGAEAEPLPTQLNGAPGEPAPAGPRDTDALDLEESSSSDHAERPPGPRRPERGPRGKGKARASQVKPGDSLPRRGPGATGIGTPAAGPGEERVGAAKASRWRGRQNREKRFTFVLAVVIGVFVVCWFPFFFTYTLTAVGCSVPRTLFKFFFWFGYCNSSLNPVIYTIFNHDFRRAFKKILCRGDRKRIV
In words: Adrenergic α2A radioligand binding ([3H]MK-912). As for the experimental part: To evaluate in radioligand binding assays the activity of compounds of the invention, human recombinant adrenergic α2A receptor expressed in insect Sf9 cells (Uhlen S et al. J Pharmacol Exp Ther. 271:1558, 1994) in a modified Tris-HCl buffer (50 mM Tris-HCl, pH 7.4, 12.5 mM MgCl2, 2 mM EDTA) was used. Compounds of invention were incubated with 1 nM [^3H]MK-912 for 60 minutes at 25° C. MK912 is (2S-trans)-1,3,4,5′,6,6′,7,12b-octahydro-1′,3′-dimethyl-spiro[2H-benzofuro[2,3-a]quinolizine-2,4′(1′H)-pyrimidin]-2′(3′H)-one hydrochloride Non-specific binding was estimated in the presence of 10 μM WB-4101 (2-(2,6-Dimethoxyphenoxyethyl)aminomethyl-1,4-benzodioxane hydrochloride). Receptor proteins were filtered and washed, the filters were then counted to determine [^3H]MK-912 specifically bound. Compounds were screened at 1 μM or lower, using 1% DMSO as vehicle. Biochemical assay results are presented as the percent inhibition of specific binding in Table 4.

Where [4] appears, read: 1 μM, read-out: Binding data (Percentage Inhibition) Histamine Binding (1 μM) H1.
Setting [5] is: 1 h, read-out: Percent Inhibition of ligand binding Adrenergic (1 μM ligand conc.) α1D.
[6] abbreviates: 1 h, read-out: Percent Inhibition of ligand binding Adrenergic (1 μM ligand conc.) α2A.

T1 sequence (P35367 whole entry): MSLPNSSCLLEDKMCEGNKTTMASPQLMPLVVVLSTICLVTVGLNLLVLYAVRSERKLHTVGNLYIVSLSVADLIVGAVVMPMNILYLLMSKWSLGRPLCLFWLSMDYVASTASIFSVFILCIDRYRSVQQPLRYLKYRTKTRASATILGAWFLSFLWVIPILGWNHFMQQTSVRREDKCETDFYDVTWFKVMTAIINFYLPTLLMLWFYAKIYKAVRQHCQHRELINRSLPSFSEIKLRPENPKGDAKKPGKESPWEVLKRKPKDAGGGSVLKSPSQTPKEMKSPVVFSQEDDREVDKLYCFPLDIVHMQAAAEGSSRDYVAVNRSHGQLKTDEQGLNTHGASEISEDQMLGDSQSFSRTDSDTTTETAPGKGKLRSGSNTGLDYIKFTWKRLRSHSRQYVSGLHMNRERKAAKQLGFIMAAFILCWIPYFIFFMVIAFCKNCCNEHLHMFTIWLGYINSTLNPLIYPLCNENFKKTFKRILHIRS

What is called inhibition is the change of the read-out against control, counted positive when it falls. Turning to `CN1CCc2c(n(CC(O)c3ccccc3)c3ccc(Cl)cc23)C1` (centres unmarked) [Compound 71], the results for the inhibition at 1 µM in assay [1] (setting [4]), in assay [2] (setting [5]) and in assay [3] (setting [6]) were 54%, 58% and 88%, respectively.
For `CCC1c2c(c3cc(C)ccc3n2C#Cc2ccc(Cl)cc2)CCN1C` (centres unmarked) [Compound 162, 9-((4-chlorophenyl)ethynyl)-1-ethyl-2,6-dimethyl-2,3,4,9-tetrahydro-1H-pyrido[3,4-b]indole], the results for the inhibition at 1 µM in assay [1] (setting [4]), in assay [2] (setting [5]) and in assay [3] (setting [6]) were 15%, 19% and 76%, respectively.
Regarding `CN1CCc2c(n(CCCc3ccccc3)c3ccc(Cl)cc23)C1` [Compound 29, 6-chloro-2,3,4,9-tetrahydro-2-methyl-9-(3-phenylpropyl)-1H-pyrido[3,4-b]indole], the results for the inhibition at 1 µM in assay [1] (setting [4]), in assay [2] (setting [5]) and in assay [3] (setting [6]) were 98%, 84% and 96%, respectively.
As for `CCC1c2c(c3cc(C)ccc3n2/C=C(\C)c2ccc(Cl)cc2)CCN1C` (centres unmarked) [Compound 160, 9-(2-(4-chlorophenyl)prop-1-enyl)-1-ethyl-2,6-dimethyl-2,3,4,9-tetrahydro-1H-pyrido[3,4-b]indole], the inhibition at 1 µM in assay [1] (setting [4]) was 31%; in assay [2] (setting [5]), 25%; in assay [3] (setting [6]), 51%.
Regarding `CN1CCc2c(n(CCc3ccc(F)cc3)c3ccc(Cl)cc23)C1` [Compound 3, 9-(4-fluorophenethyl)-6-chloro-2,3,4,9-tetrahydro-2-methyl-1H-pyrido[3,4-b]indole], the inhibition at 1 µM is 83% in assay [1] (setting [4]), 77% in assay [2] (setting [5]) and 99% in assay [3] (setting [6]).
`COc1ccc(C(O)Cn2c3c(c4cc(C)ccc42)CCN(C)C3)cc1OC` (centres unmarked) [Compound 66]: the inhibition at 1 µM in assay [1] (setting [4]) was 19%; in assay [2] (setting [5]) it was 74%; in assay [3] (setting [6]), 55%.
Take `CCC1c2c(c3cc(Cl)ccc3n2/C=C(\C)c2ccc(Cl)cc2)CCN1C` (centres unmarked) [Compound 100, 6-chloro-9-(2-(4-chlorophenyl)prop-1-enyl)-1-ethyl-2-methyl-2,3,4,9-tetrahydro-1H-pyrido[3,4-b]indole]: the inhibition at 1 µM in assay [1] (setting [4]) was 33%; in assay [2] (setting [5]) it was 8%; in assay [3] (setting [6]), 56%.
For `CN1CCc2c(n(CC(=O)Nc3ccc(F)cc3)c3ccc(Cl)cc23)C1` [Compound 15, 2-(6-chloro-1,2,3,4-tetrahydro-2-methylpyrido[3,4-b]indol-9-yl)-N-(4-fluorophenyl)acetamide], the inhibition at 1 µM in assay [1] (setting [4]) came out at 0%; in assay [2] (setting [5]), 5%; in assay [3] (setting [6]) it was 15%.
On to `CN1CCc2c(n(CC(=O)N(C)C)c3ccc(Cl)cc23)C1` [Compound 16, 2-(6-chloro-1,2,3,4-tetrahydro-2-methylpyrido[3,4-b]indol-9-yl)-N,N-dimethylacetamide], for which the inhibition at 1 µM is 16% in assay [1] (setting [4]), 2% in assay [2] (setting [5]) and -4% in assay [3] (setting [6]).
`Cc1ccc2c(c1)c1c(n2C(=O)Cc2ccc(Cl)cc2)C(c2ccccc2)N(C)CC1` (centres unmarked) [Compound 163]: the inhibition at 1 µM in assay [1] (setting [4]) was determined as 13%; in assay [2] (setting [5]) it was 78%; in assay [3] (setting [6]), 96%.
`C/C(=C\n1c2c(c3cc(C)ccc31)CCN(C)C2C)c1ccc(Cl)cc1` (centres unmarked) [Compound 161, 9-(2-(4-chlorophenyl)prop-1-enyl)-1,2,6-trimethyl-2,3,4,9-tetrahydro-1H-pyrido[3,4-b]indole]: the inhibition at 1 µM in assay [1] (setting [4]) amounted to 51%; in assay [2] (setting [5]), 32%; in assay [3] (setting [6]), 52%.
On to `CC1c2c(c3cc(Cl)ccc3n2C#Cc2ccc(F)cc2)CCN1C` (centres unmarked) [Compound 128], for which the inhibition at 1 µM in assay [1] (setting [4]) worked out at 32%; in assay [2] (setting [5]), 25%; in assay [3] (setting [6]), 81%.
Turning to `Cc1ccc(CCn2c3c(c4cc(Cl)ccc42)CCN(C)C3C)cn1` (centres unmarked) [Compound 80], the inhibition at 1 µM in assay [1] (setting [4]) is 66%; in assay [2] (setting [5]), 89%; in assay [3] (setting [6]), 82%.
For `Cc1ccc2c(c1)c1c(n2CCC(=O)N2CCCCC2)CN(C)CC1` [Compound 43, 3-(1,2,3,4-tetrahydro-2,6-dimethylpyrido[3,4-b]indol-9-yl)-1-(piperidin-1-yl)propan-1-one], in that order: 30%, 58% and 42%.
For the compound `C/C(=C\n1c2c(c3cc(C)ccc31)CCN(C)C2C)c1ccccc1F` (centres unmarked) [Compound 166], the inhibition at 1 µM turned out to be 79% in assay [1] (setting [4]); 79% in assay [1] (compound concentration 1 μM, read-out: Percentage inhibition of ligand binding to H1 receptor); 69% in assay [2] (setting [5]); 69% in assay [2] (compound concentration 1 μM, read-out: Percentage inhibition of ligand binding to Adrenergic α1D receptor); 95% in assay [3] (setting [6]); 95% in assay [3] (compound concentration 1 μM, read-out: Percentage inhibition of ligand binding to Adrenergic α2A receptor). The inhibition at 0.3 µM in assay [1] (compound concentration 0.3 μM, read-out: Percentage inhibition of ligand binding to H1 receptor) stood at 23%. For the same compound, the inhibition at 3 µM in assay [1] (compound concentration 3 μM, read-out: Percentage inhibition of ligand binding to H1 receptor) worked out at 77%.
Take `CC1CCN(C(=O)Cn2c3c(c4cc(Cl)ccc42)CCN(C)C3)CC1` [Compound 38, 2-(6-chloro-1,2,3,4-tetrahydro-2-methylpyrido[3,4-b]indol-9-yl)-1-(4-methylpiperidin-1-vyl)ethanone]: the inhibition at 1 µM is 16% in assay [1] (setting [4]), 25% in assay [2] (setting [5]) and 15% in assay [3] (setting [6]).
In the same order, the values of `CN1CCc2c(n(CC(=O)N3CCCCC3)c3ccc(Cl)cc23)C1` [Compound 58, 2-(6-chloro-2-methyl-3,4-dihydro-1H-pyrido[3,4-b]indol-9(2H)-yl)-1-(piperidin-1-yl)ethanone] are 2%, 19% and -12%.
On to `CC1c2c(c3cc(Cl)ccc3n2C#Cc2ccc(Cl)cc2)CCN1C` (centres unmarked) [Compound 132, 6-chloro-9-((4-chlorophenyl)ethynyl)-1,2-dimethyl-2,3,4,9-tetrahydro-1H-pyrido[3,4-b]indole], for which the figures for the inhibition at 1 µM in assay [1] (setting [4]), in assay [2] (setting [5]) and in assay [3] (setting [6]) were 14%, -8% and 13%, respectively.
For the compound `C/C(=C\n1c2c(c3cc(C)ccc31)CCN(C)C2c1ccccc1)c1ccc(Cl)cc1` (centres unmarked) [Compound 164, 9-(2-(4-chlorophenyl)prop-1-enyl)-2,6-dimethyl-1-phenyl-2,3,4,9-tetrahydro-1H-pyrido[3,4-b]indole], the inhibition at 1 µM was found to be 12% in assay [1] (setting [4]), 10% in assay [2] (setting [5]) and 58% in assay [3] (setting [6]).
